Here are results for 37 molecules from US10703765B2 (priority 2014, dated 2020).

Structures can show the parent of a compound that is named as a salt.

The target of one experiment is human σ1 receptor (Homo sapiens, UniProt Q99720). The experiment can be described thus: biochemical. It counts as binding. Details: μ and σ1 dual binding: key to the marks not given beside the values.
Chain of human σ1 receptor (Q99720 whole entry): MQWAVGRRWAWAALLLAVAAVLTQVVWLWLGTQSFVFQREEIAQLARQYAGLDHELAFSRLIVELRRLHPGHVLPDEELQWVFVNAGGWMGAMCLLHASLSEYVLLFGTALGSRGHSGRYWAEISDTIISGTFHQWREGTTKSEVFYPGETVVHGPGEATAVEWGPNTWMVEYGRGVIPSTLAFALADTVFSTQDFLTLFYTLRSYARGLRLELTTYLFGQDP
Settings: not given
With `CC(=O)Nc1cccc(N2CC3(CCN(CCc4ccccc4)CC3)OC(C)C2=O)c1` (stereo not shown) [Example 242, N-(3-(2-methyl-3-oxo-9-phenethyl-1-oxa-4,9-diazaspiro[5.5]undecan-4-yl)phenyl)acetamide], the “μ and σ1 dual binding” value is on record as “++”.

For `CC1OC2(CCN(Cc3ccccc3)CC2)CN(c2ccccc2)C1=O.Cl` (stereo not shown) [Example 16, 9-benzyl-2-methyl-4-phenyl-1-oxa-4,9-diazaspiro[5.5]undecan-3-one hydrochloride], the “μ and σ1 dual binding” value is listed as “++”. With `CC1OC2(CCN(CCc3ccc(C#N)cc3)CC2)CN(c2ccccc2)C1=O.Cl` (stereo not shown) [Example 76, 4-(2-(2-methyl-3-oxo-4-phenyl-1-oxa-4,9-diazaspiro[5.5]undecan-9-yl)ethyl)benzonitrile hydrochloride], the “μ and σ1 dual binding” value is “++”. `CC1OC2(CCN(CC3CCOCC3)CC2)CN(c2ccccc2)C1=O.Cl` (stereo not shown) [Example 59, 2-methyl-4-phenyl-9-((tetrahydro-2H-pyran-4-yl)methyl)-1-oxa-4,9-diazaspiro[5.5]undecan-3-one hydrchloride]: the “μ and σ1 dual binding” value was “++”.

As for `CC1CN(Cc2ccn(C)n2)CC2(CCN(CCc3ccccc3)CC2)O1` (stereo not shown) [Example 328, 2-methyl-4-((1-methyl-1H-pyrazol-3-yl)methyl)-9-phenethyl-1-oxa-4,9-diazaspiro[5.5]undecane dihydrochloride], the “μ and σ1 dual binding” value was “++”.

Take `CC1OC2(CCN(CCc3ccccc3)CC2)CN(CC2CCOCC2)C1=O.Cl` (stereo not shown) [Example 163, 2-methyl-9-phenethyl-4-((tetrahydro-2H-pyran-4-yl)methyl)-1-oxa-4,9-diazaspiro[5.5]undecan-3-one hydrochloride]: the “μ and σ1 dual binding” value was “++”.

On to `COC(=O)c1ccc(CCN2CCC3(CC2)CN(c2ccccc2)C(=O)C(C)O3)cc1.Cl` (stereo not shown) [Example 70, methyl 4-(2-(2-methyl-3-oxo-4-phenyl-1-oxa-4,9-diazaspiro[5.5]undecan-9-yl)ethyl)benzoate hydrochloride], for which the “μ and σ1 dual binding” value is reported as “++”. Take `CC(C)C1OC2(CCN(CCc3ccccc3)CC2)CN(c2ccccc2F)C1=O` (stereo not shown) [Example 312, 4-(2-fluorophenyl)-2-isopropyl-9-phenethyl-1-oxa-4,9-diazaspiro[5.5]undecan-3-one hydrochloride]: the Ki was less than 100 nM. Molecule `CC(C)C1OC2(CCN(CCc3ccccn3)CC2)CN(c2ccccc2F)C1=O` (stereo not shown) [Example 313, 4-(2-fluorophenyl)-2-isopropyl-9-(2-(pyridin-2-yl)ethyl)-1-oxa-4,9-diazaspiro[5.5]undecan-3-one hydrochloride] showed a Ki of less than 500 nM.

The molecule `CC1OC2(CCN(CCc3ccccc3O)CC2)CN(c2ccccc2)C1=O` (stereo not shown) [Example 295, 9-(2-hydroxyphenethyl)-2-methyl-4-phenyl-1-oxa-4,9-diazaspiro[5.5]undecan-3-one] came in with a Ki of less than 100 nM.

On to `OCCC1CN(c2ccccc2)CC2(CCN(CCc3ccccc3)CC2)O1` (stereo not shown) [Example 323, 2-(9-phenethyl-4-phenyl-1-oxa-4,9-diazaspiro[5.5]undecan-2-yl)ethanol hydrochloride], for which the Ki is less than 500 nM. With `CC1OC2(CCN(CCc3ccccc3)CC2)CN(c2ccc3ncsc3c2)C1=O` (stereo not shown) [Example 203, 4-(benzo[d]thiazol-6-yl)-2-methyl-9-phenethyl-1-oxa-4,9-diazaspiro[5.5]undecan-3-one], the “μ and σ1 dual binding” value is “++”.

Staying with this experiment, now noted: combined class from Ki-σ1 (human σ1 receptor, A1) and Ki-μ (human μ-opioid receptor, A2) radioligand binding.
With `CC1OC2(CCN(CCc3cccc(NS(N)(=O)=O)c3)CC2)CN(c2ccccc2)C1=O` (stereo not shown) [Example 265, N-[3-(2-{2-methyl-3-oxo-4-phenyl-1-oxa-4,9-diazaspiro[5.5]undecan-9-yl}ethyl)phenyl]aminosulfonamide], the “μ and σ1 dual binding” value is on record as “++”. `O=C1COC2(CCN(CCc3ccccc3)CC2)CN1Cc1ccncc1` [Example 165, 9-phenethyl-4-(pyridin-4-ylmethyl)-1-oxa-4,9-diazaspiro[5.5]undecan-3-one]: the “μ and σ1 dual binding” value is recorded as “++”.

Still in this experiment, the particulars now being: read-out: μ and σ1 dual binding.
`CC1OC2(CCN(CCc3ncccc3Cl)CC2)CN(Cc2ccc(C(F)(F)F)cn2)C1=O` (stereo not shown) [Example 45, 9-(2-(3-chloropyridin-2-yl)ethyl)-2-methyl-4-((5-(trifluoromethyl)pyridin-2-yl)methyl)-1-oxa-4,9-diazaspiro[5.5]undecan-3-one hydrochloride]: the Ki was less than 100 nM. The same measure, in the same setting: then `CC1OC2(CCN(CCc3ccccc3)CC2)CN(c2cccc([N+](=O)[O-])c2)C1=O` (stereo not shown) [Example 199, 2-methyl-4-(3-nitrophenyl)-9-phenethyl-1-oxa-4,9-diazaspiro[5.5]undecan-3-one], with more than 500 nM; and `O=C1N(CCOC2CCCCO2)CC2(CCN(CCc3ccccc3)CC2)OC12CC2` (stereo not shown) [Example 185, 12-(2-((tetrahydro-2H-pyran-2-yl)oxy)ethyl)-8-phenethyl-4-oxa-8,12-diazadispiro[2.1.5.3]tridecan-13-one], with more than 500 nM. The same measure, in the same setting: then `CC1OC2(CCN(CCc3ccccc3)CC2)CN(Cc2cncs2)C1=O` (stereo not shown) [Example 161, 2-methyl-9-phenethyl-4-(thiazol-5-ylmethyl)-1-oxa-4,9-diazaspiro[5.5]undecan-3-one hydrochloride], with less than 500 nM. Consider `COc1ccccc1CCN1CCC2(CC1)CN(Cc1ccccn1)CCO2` [Example 326, 9-(2-methoxyphenethyl)-4-(pyridin-2-ylmethyl)-1-oxa-4,9-diazaspiro[5.5]undecane], for which the Ki is less than 500 nM. For the molecule `CC1OC2(CCN(CCc3ccc(Cl)nc3)CC2)CN(c2ccccc2)C1=O` (stereo not shown) [Example 113, 9-(2-(6-chloropyridin-3-yl)ethyl)-2-methyl-4-phenyl-1-oxa-4,9-diazaspiro[5.5]undecan-3-one], the Ki was more than 500 nM. As for `COc1ccccc1CCN1CCC2(CC1)CN(Cc1ccccc1)CCO2` [Example 87, 4-benzyl-9-(2-methoxyphenethyl)-1-oxa-4,9-diazaspiro[5.5]undecane dihydrochloride], the Ki was more than 500 nM.

As for `COC[C@H]1OC2(CCN(CCc3ccccc3)CC2)CN(c2ccccc2)C1=O` [Example 12b, (R)-2-(methoxymethyl)-9-phenethyl-4-phenyl-1-oxa-4,9-diazaspiro[5.5]undecan-3-one], the Ki is less than 100 nM. `O=C1COC2(CCN(CCc3ccccc3)CC2)CN1c1ccc(F)cc1` [Example 190, 4-(4-fluorophenyl)-9-phenethyl-1-oxa-4,9-diazaspiro[5.5]undecan-3-one]: the Ki is less than 500 nM. On to `CC1(C)OC2(CCN(CCc3ccccc3)CC2)CN(c2ccccc2)C1=O` [Example 18, 2,2-dimethyl-9-phenethyl-4-phenyl-1-oxa-4,9-diazaspiro[5.5]undecan-3-one], for which the Ki is less than 100 nM.

For `COc1cccc(CCN2CCC3(CC2)CN(c2ccccc2)C(=O)CO3)c1` [Example 132, 9-(3-methoxyphenethyl)-4-phenyl-1-oxa-4,9-diazaspiro[5.5]undecan-3-one], the Ki is less than 500 nM. As for `CC(C)(C)OC(=O)Nc1nc(CCN2CCC3(CC2)CN(Cc2ccc(C(F)(F)F)cn2)C(=O)C2(CC2)O3)cs1` [Example 120, tert-butyl (4-(2-(13-oxo-12-{[5-(trifluoromethyl)pyridin-2-yl]methyl}-4-oxa-8,12-diazadispiro[2.1.5.3]tridecan-8-yl)ethyl)thiazol-2-yl)carbamate], the Ki is more than 500 nM. Still for that read-out and setting: then `CC1OC2(CCN(CCC(=O)Nc3ccccc3)CC2)CN(c2ccccc2)C1=O` (stereo not shown) [Example 144, 3-(2-methyl-3-oxo-4-phenyl-1-oxa-4,9-diazaspiro[5.5]undecan-9-yl)-N-phenylpropanamide hydrochloride], with less than 500 nM; and `COC(=O)CCN1CC2(CCN(CCc3ccccc3)CC2)OC2(CC2)C1=O` [Example 186, methyl 3-(13-oxo-8-phenethyl-4-oxa-8,12-diazadispiro[2.1.5.3]tridecan-12-yl)propanoate], with more than 500 nM; and `O=C1COC2(CCN(CCc3ccccc3)CC2)CN1c1ccccc1F` [Example 189, 4-(2-fluorophenyl)-9-phenethyl-1-oxa-4,9-diazaspiro[5.5]undecan-3-one], with less than 500 nM.

For `Nc1cccc(CCN2CCC3(CC2)CN(c2ccccc2)C(=O)C2(CC2)O3)c1` [Example 231, 8-(3-aminophenethyl)-12-phenyl-4-oxa-8,12-diazadispiro[2.1.5.3]tridecan-13-one], the Ki is more than 500 nM.

Consider `O=C1COC2(CCN(CCc3ccccc3)CC2)CN1Cc1ccccc1` [Example 153, 4-benzyl-9-phenethyl-1-oxa-4,9-diazaspiro[5.5]undecan-3-one hydrochloride], for which the Ki is less than 100 nM. As to `CC1OC2(CCN(CCc3ccccc3)CC2)CN(Cc2ccncc2)C1=O` (stereo not shown) [Example 162, 2-methyl-9-phenethyl-4-(pyridin-4-ylmethyl)-1-oxa-4,9-diazaspiro[5.5]undecan-3-one], the Ki is less than 500 nM. Regarding `COc1ccc(CN2CC3(CCN(CCc4ccccc4)CC3)OC3(CC3)C2=O)cc1` [Example 109, 12-(4-methoxybenzyl)-8-phenethyl-4-oxa-8,12-diazadispiro[2.1.5.3]tridecan-13-one hydrochloride], the Ki was less than 100 nM. As to `CC1OC2(CCN(CCc3ccccc3)CC2)CN(Cc2ccccc2)C1=O` (stereo not shown) [Example 152, 4-benzyl-2-methyl-9-phenethyl-1-oxa-4,9-diazaspiro[5.5]undecan-3-one hydrochloride], the Ki is less than 100 nM. `CC(C)=C1OC2(CCN(CCc3scnc3C)CC2)CN(c2ccccc2F)C1=O` [Example 141, 4-(2-fluorophenyl)-9-(2-(4-methylthiazol-5-yl)ethyl)-2-(propan-2-ylidene)-1-oxa-4,9-diazaspiro[5.5]undecan-3-one hydrochloride]: the Ki is less than 500 nM. On the same count and under the same terms, then `CCC1OC2(CCN(CCc3ccccc3)CC2)CN(c2ccccc2)C1=O` (stereo not shown) [Example 13, 2-ethyl-9-phenethyl-4-phenyl-1-oxa-4,9-diazaspiro[5.5]undecan-3-one], with less than 100 nM; and `CC1OC2(CCN(CCc3ncccc3[N+](=O)[O-])CC2)CN(c2ccccc2F)C1=O` (stereo not shown) [Example 25, 4-(2-fluorophenyl)-2-methyl-9-(2-(3-nitropyridin-2-yl)ethyl)-1-oxa-4,9-diazaspiro[5.5]undecan-3-one], with more than 500 nM.
